Assay results published in article PMC3914891, “Pentacyclic Nitrofurans with In Vivo Efficacy and Activity against Nonreplicating Mycobacterium tuberculosis” (PLoS ONE, 2014).
Converted amounts (≈) assume the structure as drawn. Like-named read-outs stand apart in the source and are kept apart here.

Assays:
[1] = test system: M. fortuitum (ATCC 6841); assay: MIC, non-tuberculosis mycobacteria: M. fortuitum; format: cell-based; conditions: Mycolicibacterium fortuitum, ATCC6841, 72 h; broth dilution, visual inspection, 3 days; read-out: Minimum Inhibitory Concentration, M. fortuitum
[2] = test system: M. kansasii (ATCC 12478); assay: MIC, non-tuberculosis mycobacteria: M. kansasii; format: cell-based; conditions: Mycobacterium kansasii, ATCC12478, 168 h; broth dilution, visual inspection, 7 days; read-out: Minimum Inhibitory Concentration, M. kansasii
[3] = test system: M. avium (ATCC 25291); assay: MIC, non-tuberculosis mycobacteria: M. avium; format: cell-based; conditions: Mycobacterium avium, ATCC25291, 168 h; broth dilution, visual inspection, 7 days; read-out: Minimum Inhibitory Concentration, M. avium
[4] = test system: M. abscessus (ATCC 19977); assay: MIC, non-tuberculosis mycobacteria: M. abscessus; format: cell-based; conditions: Mycobacteroides abscessus, ATCC19977, 72 h, read-out: Minimum Inhibitory Concentration, M. abscessus
[5] = test system: Streptococcus pneumoniae (R6); assay: MIC, spectrum of activity: S.pn; format: cell-based; conditions: read-out: Minimum Inhibitory Concentration, S. Pn.
[6] = test system: Escherichia coli (ATCC 700926); assay: MIC, spectrum of activity: E.c.; format: cell-based; conditions: ATCC700926, read-out: Minimum Inhibitory Concentration, E.c.
[7] = test system: Streptococcus pyogenes (ATCC 700294); assay: MIC, spectrum of activity: S.py; format: cell-based; conditions: ATCC700294, read-out: Minimum Inhibitory Concentration, S. Py.
[8] = in vitro; conditions: mouse, plasma
[9] = test system: Staphylococcus aureus (ATCC 29213); assay: MIC, spectrum of activity: S.a.; format: cell-based; conditions: ATCC29213, read-out: Minimum Inhibitory Concentration, S.a
[10] = test system: Stenotrophomonas maltophilia (ATCC 13637); assay: MIC, spectrum of activity: S.m.; format: cell-based; conditions: ATCC13637, read-out: Minimum Inhibitory Concentration, S.m.
[11] = test system: Bacillus anthracis sterne 34F2; assay: microbe, parasite or virus in culture; format: cell-based; conditions: STERNE34F2, read-out: Minimum Inhibitory Concentration, B.a.
[12] = test system: Enterococcus faecalis (ATCC 33186); assay: MIC, spectrum of activity: E.f.; format: cell-based; conditions: ATCC33186, read-out: Minimum Inhibitory Concentration, E.f.
[13] = rats; IV 10 mg/kg and oral 100 mg/kg
[14] = in vitro; conditions: mouse, microsomes
[15] = male, Sprague-Dawley, rat, in vivo; for fe (fraction excreted unchanged in urine): iv, 10 mg/kg; for Cmin,24 h: po, 100 mg/kg
[16] = physchem; conditions: pH 7.4, aqueous buffer
[17] = test system: Bacillus subtilis (ATCC 23857); assay: MIC, spectrum of activity: B.s.; format: cell-based; conditions: ATCC23857, read-out: Minimum Inhibitory Concentration, B.s.
[18] = test system: Vero cells; assay: In vitro cytotoxicity against Vero cells
[19] = In vitro cytotoxicity against Vero cells; conditions: African green monkey, Vero cells (kidney epithelial cells, ATCC CCL-81)
[20] = in vivo; conditions: male, Sprague-Dawley, rat; for Vd / clearance / half-life: iv, 10 mg/kg; for AUC(0-inf) / Cmax / bioavailability: po, 100 mg/kg
[21] = test system: Staphylococcus aureus (NRS70); assay: MIC, spectrum of activity: MRSA; format: cell-based; conditions: read-out: Minimum Inhibitory Concentration, MRSA
[22] = test system: M. tuberculosis; assay: MIC determination, microbroth dilution, M. tuberculosis; format: cell-based, Mycobacterium tuberculosis; conditions: Mycobacterium tuberculosis
[23] = test system: Burkholderia cepacia (ATCC 25416); assay: MIC, spectrum of activity: B.c.; format: cell-based; conditions: ATCC25416, read-out: Minimum Inhibitory Concentration, B.c.
[24] = test system: E. coli K12 ∆tolC; format: cell-based; conditions: E. coli K12 ∆tolC (efflux pump deficient)
[25] = test system: M. tuberculosis strain H37Rv; assay: Checkerboard synergy assay; format: cell-based, Mycobacterium tuberculosis; conditions: for MIC: Mycobacterium tuberculosis, H37RV, 168 h, read-out: MIC Alone
[26] = test system: M. tuberculosis H37Rv; assay: Minimum bactericidal concentration determination; format: cell-based, Mycobacterium tuberculosis
[27] = test system: hypoxic M. tuberculosis strain H37Rv; assay: NRP bacteria under hypoxia (rapid anaerobic dormancy model); format: cell-based, Mycobacterium tuberculosis
[28] = test system: M. ulcerans (ATCC 35840); assay: MIC by agar proportion method: M. ulcerans; format: cell-based; conditions: Mycobacterium ulcerans, ATCC35840, 672 h, read-out: Minimum Inhibitory Concentration, M. ulcerans

Structure (SMILES)	MIC [5]	MIC [6]	MIC [7]	fraction unbound [8]	MIC [9]	MIC [10]	MIC [11]	MIC [12]	half-life [14]	solubility [16]	MIC [17]	Selective Index (Cytox/MIC) [18]	IC50 [19]	MIC [21]	MIC ([22]; 168 h, read-out: M. tb. MIC)	MIC [23]	Minimum Inhibitory Concentration, E.c. ΔtolC [24]	FICI with 9a [25]	MIC in presence of 9a [25]	Type of Interaction [25]	further results
NCC[C@H](O)C(=O)N[C@@H]1C[C@H](N)[C@@H](O[C@H]2O[C@H](CN)[C@@H](O)[C@H](O)[C@H]2O)[C@H](O)[C@H]1O[C@H]1O[C@H](CO)[C@@H](O)[C@H](N)[C@H]1O [Amikacin]																					MIC [1]: 0.78 µg/mL (≈ 1.33 µM); MIC [2]: 6.25 to 12.5 µg/mL (≈ 10.7 to 21.3 µM); MIC [3]: 12.5 µg/mL (≈ 21.3 µM); MIC [4]: 3.13 to 6.25 µg/mL (≈ 5.34 to 10.7 µM)
O=[N+]([O-])c1ccc(C2=NOC(c3ccc(N4CCC(Oc5ccc(OC(F)(F)F)cc5)CC4)nc3)C2)o1 (centres unmarked) [Compound 9b, 3-(5-Nitrofuran-2-yl)-5-(6-(4-(4-(trifluoromethoxy)phenoxy)piperidin-1-yl)pyridin-3-yl)-4,5-dihydroisoxazole]	200 µg/mL (≈ 386 µM)	> 200 µg/mL	200 µg/mL (≈ 386 µM)	0.001	200 µg/mL (≈ 386 µM)	100 µg/mL (≈ 193 µM)	50 µg/mL (≈ 96.4 µM)	> 200 µg/mL	6.91 h	1.6 µg/mL (≈ 3.09 µM)	> 200 µg/mL	667	4 µg/mL (≈ 7.72 µM)	200 µg/mL (≈ 386 µM)	0.006 µg/mL	100 µg/mL (≈ 193 µM)	>200 µg/mL				Toxicity by intravenous and oral dosing [13]: non-toxic; fe (fraction excreted unchanged in urine) [15]: 0.01 (0.00) %; Cmin,24 h [15]: 0.11 (0.11) mg/L; Vd [20]: 1.53 L/kg; clearance [20]: 7 mL/min/kg; half-life [20]: 2.48 h; AUC(0-inf) [20]: 15100 ng·h/mL; Cmax [20]: 2310 ng/mL; bioavailability [20]: 8%
O=[N+]([O-])c1ccc(C2=NOC(c3ccc(N4CCC(Oc5ccc(OC(F)(F)F)cc5)CC4)c(F)c3)C2)o1 (centres unmarked) [Compound 9c, 5-(3-Fluoro-4-(4-(4-(trifluoromethoxy)phenoxy)piperidin-1-yl)phenyl)-3-(5-nitrofuran-2-yl)-4,5-dihydroisoxazole]	> 200 µg/mL	> 200 µg/mL	200 µg/mL (≈ 374 µM)	0.024	> 200 µg/mL	> 200 µg/mL	12.5 µg/mL (≈ 23.3 µM)	> 200 µg/mL	7.04 h	1.9 µg/mL (≈ 3.55 µM)	200 µg/mL (≈ 374 µM)	21400	21.4 µg/mL (≈ 40 µM)	> 200 µg/mL	0.001 µg/mL	> 200 µg/mL	>200 µg/mL				Toxicity by intravenous and oral dosing [13]: Central nervous system toxicity (seizures); fe (fraction excreted unchanged in urine) [15]: 0.02 (0.00) %; Cmin,24 h [15]: 0.02 (0.02) mg/L; Vd [20]: 1.69 L/kg; clearance [20]: 6.83 mL/min/kg; half-life [20]: 5.6 h; AUC(0-inf) [20]: 1610 ng·h/mL; Cmax [20]: 150 ng/mL; bioavailability [20]: 0.83%
O=[N+]([O-])c1ccc(C2=NOC(c3ccc(N4CCC(Oc5ccc(F)cc5)CC4)cc3)C2)o1 (centres unmarked) [Compound 9d, 5-(4-(4-(4-Fluorophenoxy)piperidin-1-yl)phenyl)-3-(5-nitrofuran-2-yl)-4,5-dihydroisoxazole]	> 200 µg/mL	> 200 µg/mL	> 200 µg/mL	0.009	6.3 µg/mL (≈ 14 µM)	6.3 µg/mL (≈ 14 µM)	> 200 µg/mL	> 200 µg/mL	1.43 h	0.7 µg/mL (≈ 1.55 µM)	100 µg/mL (≈ 222 µM)	1225	14.7 µg/mL (≈ 32.6 µM)	100 µg/mL (≈ 222 µM)	0.012 µg/mL	50 µg/mL (≈ 111 µM)	>200 µg/mL				
O=[N+]([O-])c1ccc(C2=NOC(c3ccc(N4CCC(Oc5ccc(F)cc5)CC4)nc3)C2)o1 (centres unmarked) [Compound 9e, 5-(6-(4-(4-Fluorophenoxy)piperidin-1-yl)pyridin-3-yl)-3-(5-nitrofuran-2-yl)-4,5-dihydroisoxazole]	> 200 µg/mL	> 200 µg/mL	> 200 µg/mL	0.002	> 200 µg/mL	6.3 µg/mL (≈ 13.9 µM)	> 200 µg/mL	50 µg/mL (≈ 111 µM)	1.93 h	2.2 µg/mL (≈ 4.86 µM)	50 µg/mL (≈ 111 µM)	3750	7.5 µg/mL (≈ 16.6 µM)	50 µg/mL (≈ 111 µM)	0.002 µg/mL	50 µg/mL (≈ 111 µM)	>200 µg/mL				
O=[N+]([O-])c1ccc(C2=NOC(c3ccc(N4CCC(Oc5ccc(F)cc5)CC4)c(F)c3)C2)o1 (centres unmarked) [Compound 9f, 5-(3-Fluoro-4-(4-(4-fluorophenoxy)piperidin-1-yl)phenyl)-3-(5-nitrofuran-2-yl)-4,5-dihydroisoxazole]	25 µg/mL (≈ 53.3 µM)	> 200 µg/mL	50 µg/mL (≈ 107 µM)	0.002	3.13 µg/mL (≈ 6.67 µM)	> 200 µg/mL	> 200 µg/mL	6.3 µg/mL (≈ 13.4 µM)	1.74 h	0.8 µg/mL (≈ 1.7 µM)	25 µg/mL (≈ 53.3 µM)	667	8 µg/mL (≈ 17 µM)	12.5 µg/mL (≈ 26.6 µM)	0.012 µg/mL	12.5 µg/mL (≈ 26.6 µM)	12.5 µg/mL				
CC[C@@H](CO)NCCN[C@@H](CC)CO [Ethambutol]																		0.75–1.00	0.8 µg/mL	Indifference (key: Synergy: synergy (FICI ≤0.5); Indifference: indifference (FICI >0.5–4.0); Antagonism: antagonism (FICI >4.0))	MIC [25]: 1.6 µg/mL
CC(=O)NC[C@H]1CN(c2ccc(N3CCOCC3)c(F)c2)C(=O)O1 [Linezolid]																		1.00	0.8 µg/mL	Indifference (key: Synergy: synergy (FICI ≤0.5); Indifference: indifference (FICI >0.5–4.0); Antagonism: antagonism (FICI >4.0))	MIC [25]: 1.6 µg/mL
C[C@]1(COc2ccc(N3CCC(Oc4ccc(OC(F)(F)F)cc4)CC3)cc2)Cn2cc([N+](=O)[O-])nc2O1 [OPC-67683]				0.002					27.2 h				107 µg/mL (≈ 200 µM)		0.01 µg/mL						MBC [26]: >3; Classification ([26]; cidal or static from MBC versus MIC): Static (static (MBC/MIC >4)); MIC ([22]; M. tuberculosis, […], read-out: MIC): 0.019 µM
CO[C@H]1/C=C/O[C@@]2(C)Oc3c(C)c(O)c4c(O)c(c(/C=N/N5CCN(C)CC5)c(O)c4c3C2=O)NC(=O)/C(C)=C\C=C\[C@H](C)[C@H](O)[C@@H](C)[C@@H](O)[C@@H](C)[C@H](OC(C)=O)[C@@H]1C [Rifampin]																		0.38	0.003 µg/mL	Synergy (key: Synergy: synergy (FICI ≤0.5); Indifference: indifference (FICI >0.5–4.0); Antagonism: antagonism (FICI >4.0))	MIC [1]: 1.56 µg/mL (≈ 1.9 µM); MIC [2]: 0.39 µg/mL (≈ 0.474 µM); % Growth vs. Control [27]: <0.1%; MIC [28]: 0.1 to 0.4 µg/mL (≈ 0.122 to 0.486 µM); MIC [3]: 6.3 µg/mL (≈ 7.66 µM); MIC ([4]; broth dilution, visual inspection, 3 days, range of at least two independent experiments): 50 µg/mL (≈ 60.8 µM); fold decrease of MIC in the presence of 9a [25]: ~10 fold; MIC [25]: 0.02 to 0.05 µg/mL
[H]/N=C(/N)N[C@H]1[C@H](O)[C@@H](O)[C@H](O[C@@H]2O[C@@H](C)[C@](O)(C=O)[C@H]2O[C@@H]2O[C@@H](CO)[C@H](O)[C@@H](O)[C@@H]2NC)[C@@H](N/C(N)=N\[H])[C@@H]1O [Streptomycin]																		0.75	0.4 to 0.8 µg/mL	Indifference (key: Synergy: synergy (FICI ≤0.5); Indifference: indifference (FICI >0.5–4.0); Antagonism: antagonism (FICI >4.0))	Classification [26]: Cidal (key: Cidal: cidal (MBC/MIC ≤4); Static: static (MBC/MIC >4)); MBC [26]: 3.13–6.25; MBC/MIC [26]: ≤ 4; MIC [25]: 1.6 µg/mL
